For 2 compounds, IC50 results are on record in ChEMBL document CHEMBL5726143, “Aminoindazole derivatives as sodium channel inhibitors” (2019).

In this test the target is Sodium channel protein type 9 subunit alpha (Homo sapiens, UniProt Q15858). Description: In Vitro Electrophysiology: Electrophysiological studies are performed with an IonWorks Quattro (Molecular Devices Corp.) automated patch-clamp electrophysiology platform as described by (Schroeder K et al. Journal of Biomolecular Screening 2003, 8 (1), 50-64). Buffers for the experiments have the following composition (mM): Internal solution; K-gluconate 100, KCl 40, MgCl2 3.2, HEPES 5, EGTA 3, pH 7.3. To this amphotericin B is added to final concentration of 0.1 mg/ml to generate access solution. External solution; Dulbecco's Phosphate buffered saline (D-PBS) NaCl 137.93, KCl 2.67, KH2PO4 1.47, Na2HPO4 8.06, CaCl2 0.90, MgCl2 0.49. Prior to the experiment the cells expressing the voltage-gated ion channel of interest are detached from the tissue culture flasks, centrifuged and resuspended in D-PBS. Compounds are prepared and serially diluted in DMSO and finally diluted 1:100 in D-PBS. Cells are exposed to compounds through the pipetting system integrated into the platform and the voltage-gated ion channel of interest is activated with specific voltage stimulation protocols. The following voltage stimulation protocol is used for testing compounds against the voltage-gated sodium channel Nav1.7; from a holding potential of −100 mV a train of eight 60 ms depolarising steps to −20 mV at a frequency of 14 Hz are employed followed by a further step to −20 mV for 2000 ms. […].
Chain of Sodium channel protein type 9 subunit alpha (Q15858 whole entry): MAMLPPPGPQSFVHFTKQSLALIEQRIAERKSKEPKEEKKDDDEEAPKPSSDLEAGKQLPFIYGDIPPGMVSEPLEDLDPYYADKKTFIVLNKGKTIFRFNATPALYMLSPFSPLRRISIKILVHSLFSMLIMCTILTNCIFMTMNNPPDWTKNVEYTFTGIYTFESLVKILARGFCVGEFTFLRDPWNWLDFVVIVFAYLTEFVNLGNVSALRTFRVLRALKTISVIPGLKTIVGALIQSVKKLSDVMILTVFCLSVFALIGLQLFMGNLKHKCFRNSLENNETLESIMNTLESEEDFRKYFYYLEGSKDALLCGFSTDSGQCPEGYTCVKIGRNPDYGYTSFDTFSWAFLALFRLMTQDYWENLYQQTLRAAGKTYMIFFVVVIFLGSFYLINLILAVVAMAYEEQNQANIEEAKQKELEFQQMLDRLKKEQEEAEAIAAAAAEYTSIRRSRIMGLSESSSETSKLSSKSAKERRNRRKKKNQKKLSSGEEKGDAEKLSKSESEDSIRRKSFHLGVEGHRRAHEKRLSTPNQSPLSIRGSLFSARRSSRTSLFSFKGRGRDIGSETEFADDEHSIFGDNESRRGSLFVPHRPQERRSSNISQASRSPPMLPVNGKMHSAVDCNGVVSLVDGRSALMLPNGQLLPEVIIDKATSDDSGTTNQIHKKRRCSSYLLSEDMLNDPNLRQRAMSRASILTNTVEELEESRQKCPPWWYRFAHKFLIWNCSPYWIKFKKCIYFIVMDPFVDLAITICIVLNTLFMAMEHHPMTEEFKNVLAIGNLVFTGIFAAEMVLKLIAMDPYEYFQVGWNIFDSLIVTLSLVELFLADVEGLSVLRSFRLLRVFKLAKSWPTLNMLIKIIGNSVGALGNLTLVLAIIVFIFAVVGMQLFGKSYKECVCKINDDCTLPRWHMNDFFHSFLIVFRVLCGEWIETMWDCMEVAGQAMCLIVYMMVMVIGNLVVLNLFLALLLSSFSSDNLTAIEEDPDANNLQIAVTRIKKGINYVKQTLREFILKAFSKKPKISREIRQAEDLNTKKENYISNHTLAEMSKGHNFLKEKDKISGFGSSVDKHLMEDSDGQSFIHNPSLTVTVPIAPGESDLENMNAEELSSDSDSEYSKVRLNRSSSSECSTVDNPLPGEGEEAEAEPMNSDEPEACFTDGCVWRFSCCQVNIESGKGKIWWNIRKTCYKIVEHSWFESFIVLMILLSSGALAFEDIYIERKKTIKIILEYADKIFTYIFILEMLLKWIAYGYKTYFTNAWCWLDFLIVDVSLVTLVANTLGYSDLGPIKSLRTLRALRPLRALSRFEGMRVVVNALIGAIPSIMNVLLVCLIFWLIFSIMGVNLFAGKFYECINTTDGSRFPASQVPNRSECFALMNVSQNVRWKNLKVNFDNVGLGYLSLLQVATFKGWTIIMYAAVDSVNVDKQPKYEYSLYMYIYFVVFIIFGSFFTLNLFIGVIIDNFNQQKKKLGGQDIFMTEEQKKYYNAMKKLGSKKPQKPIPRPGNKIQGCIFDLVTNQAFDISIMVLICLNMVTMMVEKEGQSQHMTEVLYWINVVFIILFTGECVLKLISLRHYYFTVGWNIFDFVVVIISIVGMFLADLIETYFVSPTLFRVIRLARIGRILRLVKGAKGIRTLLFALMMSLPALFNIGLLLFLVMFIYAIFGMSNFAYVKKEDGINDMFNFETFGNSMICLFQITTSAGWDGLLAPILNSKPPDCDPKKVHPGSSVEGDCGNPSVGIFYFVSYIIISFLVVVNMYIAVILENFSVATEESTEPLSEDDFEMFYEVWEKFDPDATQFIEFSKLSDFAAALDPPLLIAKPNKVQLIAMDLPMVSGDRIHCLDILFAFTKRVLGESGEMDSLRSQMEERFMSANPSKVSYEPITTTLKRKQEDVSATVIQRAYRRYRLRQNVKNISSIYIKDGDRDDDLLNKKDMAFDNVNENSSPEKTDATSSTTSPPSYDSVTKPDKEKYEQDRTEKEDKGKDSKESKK

The IC50 is the concentration needed to halve the response being measured. Higher therefore signals lower potency. Take `COc1ccc(OCC(F)(F)C(F)(F)F)c(-c2ccc3c(N)nn(C)c3c2)c1`: the IC50 was determined as 1230 nM.

`COc1cccc(-c2ccc3c(N)nn(C)c3c2)c1OCC(F)F` gave a concentration for half-maximal inhibition (IC50) of 1070 nM.
